Measured values as given in patent publication US12492169B2, “Aminopyridine compound and application thereof” (priority 2020, dated 2025).
“And” between values parts separate entries of the source, which are not always exact repeats. Equal entries are not always repeated.

Key:
[1] = test system: Candida albicans ATCC MYA-4788; experiment: Mouse Candida vaginal infection model; type: in vivo; settings: female C3H/NeH mice, 20 mpk intraperitoneally once a day for 3 days after ABT, CFU at 96 hours of infection, P<0.001
Procedure: • Experimental animals: female C3H/NeH mice, 6 to 8 weeks old, 19 to 21 g, n=5 to 6; • microbial pathogen: Candida albicans ATCC MYA-4788; • inoculation level and route: 5.0E+05 CFU/mouse, infected by vaginal instillation; • test sample: WX004: 20 mpk
Treatment: ABT was administered orally 22 hours after infection, and the test compound was injected intraperitoneally 24 hours after infection. In this experiment, the Vehicle group and the test compound group were set up, with a total of 3 days of administration, once a day, and a administration volume of 10 mL/kg.
Observation indicators: After 96 hours of infection in each group of mice, the vaginal tissue and vaginal lavage fluid of the mice were taken for CFU counting. Plasma samples were collected at 0.25 h, 0.5 h, 1 h, 2 h, 4 h, 8 h, and 24 h after the last administration.

[2] = test system: Aspergillus flavus ATCC MYA-1004; experiment: Minimum effective concentration (MEC) test against fungi; type: cell-based; settings: change of hyphae morphology by microscope, 48 hours, three independent experiments
Procedure: (§1) To test the minimum inhibitory concentration (MIC) and minimum effective concentration (MEC) of the drug against fungi.
(§2) Aspergillus fumigatus ATCC-MYA-4609; Aspergillus flavus ATCC MYA-1004
(§3) Test medium: RPMI1640 (containing 0.165 M MOPS, pH7.0)
(§4) On the day of the experiment, the compound in the bottle was dissolved in 100% DMSO to a stock solution concentration of 6.24 mg/mL. Then, the mixture was 10-fold diluted with DMSO to 0.624 mg/mL for use.
(§5) A 2-fold gradient dilution of the compound solution (0.624 mg/mL) was performed using DMSO on a 96-microwell plate (V-bottom) to obtain 100× working solutions (wells 1 to 11). 624, 312, 156, 78, 39, 20, 10, 5, 2.5, 1.25, 0.625 μg/mL. 100% DMSO was used as a positive control (well 12). This was the compound stock plate.
(§6) Aspergillus fumigatus ATCC-MYA-4609; Aspergillus flavus ATCC MYA-1004 frozen at −80° C. were streaked on SDA plates and incubated aerobically in a 30±2° C. incubator for 6 days.
(§7) For strains Aspergillus fumigatus ATCC MYA-4609; Aspergillus flavus ATCC MYA-1004, after taking out the plate, 3 mL of 0.9% normal saline containing 0.1% Tween20 was added to the plate and the spores were gently collected. The spores were counted with a hemocytometer and the spore suspension was adjusted to about 5×10^6 spores/mL. Then the spore suspension was diluted to 0.8 to 1×10^5 spores/mL with a test medium.
(§8) 2 μL of 100× working solution from the compound stock plate (prepared in 3.1) was transferred to a round-bottomed 96-well plate (containing 98 μL of test medium), and then 100 μL of fungus inoculum (prepared in 3.2) was added to each well to obtain a MIC test plate. Therefore, the final test concentrations of the compounds were 6.24, 3.12, 1.56, 0.78, 0.39, 0.20, 0.10, 0.05, 0.025, 0.0125, 0.006 μg/mL. 1% DMSO was used as a growth control.
(§9) For mold strains Aspergillus fumigatus ATCC-MYA-4609 and Aspergillus flavus ATCC MYA-1004, all test plates were incubated aerobically in a 35±° C. incubator for 48 hours.
(§10) After incubation, according to the criteria in Table 1 below, the test plate was observed by eye or microscope to determine the MIC (g/mL) and MEC (g/mL) of the test compound against yeast and mold.

[3] = test system: Aspergillus fumigatus ATCC-MYA-4609; experiment: as above; type: cell-based; settings: change of hyphae morphology by microscope, 48 hours, three independent experiments
Procedure: as §1, §2, §3, §4, §5, §6, §7, §8, §9, §10

[4] = Pharmacokinetic evaluation in dogs (IV, PO); type: in vivo, beagle dogs; settings: beagle, plasma, Dog
Description: (§11) Experimental Purpose: To evaluate the druggability of the compounds by measuring its pharmacokinetic properties in different animal species.
(§12) Experimental materials: CD-1 mice, Sprague-Dawley strain rats, beagle dogs, and crab-eating macaques.
(§13) Drug preparation: An appropriate amount of sample was weighed and then prepared into a clear or suspended solution.
(§14) Experimental procedure: The animal pharmacokinetic characteristics after intravenous injection and oral administration of the compound were tested using a standard protocol. The candidate compound was prepared as a clear solution (for intravenous injection) or a homogeneous suspension (for oral administration) during the experiment and administered to the animals as a single dose. Whole blood samples were collected at 0.083, 0.25, 0.5, 1, 2, 4, 8, and 24 hours, centrifuged at 3200 g for 10 minutes to separate the supernatant to obtain plasma samples. The plasma concentration was quantitatively analyzed by LC-MS/MS analysis method and pharmacokinetic parameters were calculated, such as peak concentration, peak time, clearance rate, half-life, area under the drug-time curve, etc.

[5] = Pharmacokinetic evaluation in mice (IV); type: in vivo, CD-1 mice; settings: CD-1, plasma, 1 mg/kg, Mouse, 1 mpk
Description: as §11, §12, §13, §14

[6] = Pharmacokinetic evaluation in rats (IV, PO); type: in vivo, Sprague-Dawley strain rats; settings: Sprague-Dawley, plasma, Rat
Description: as §11, §12, §13, §14

in vivo = experiment: in vivo; set-up: species or system crab-eating macaques; settings: monkey
Description: as §11, §12, §13, §14

[7] = crab-eating macaque (cynomolgus), iv, 0.4 mg/kg
[8] = crab-eating macaque (cynomolgus), po, 10 mg/kg

In the case of `Nc1ccc(C#CCc2ccc(COc3ccccn3)cc2)cn1` [WX004], the “reduction of fungal load in the vaginal lavage fluid compared with the Vehicle group” value [1] is reported as 2.5 lg, the “reduction of fungal load in the vaginal tissue compared with the Vehicle group” value [1] is reported as 2.7 lg and the MEC [2] is reported as 0.39 µg/mL and 0.78 µg/mL. It also gave an MEC [3] of 0.1 µg/mL, an AUC ([4]; 1 mg/kg, IV, 1 mpk) of 2.8 µM·h and a Vd ([4]; 1 mg/kg, IV, 1 mpk) of 2.8 L/kg. It also gave a clearance ([4]; 1 mg/kg, IV, 1 mpk) of 21 mL/min/kg, a half-life ([4]; 1 mg/kg, IV, 1 mpk) of 2.5 h and an AUC ([4]; 10 mg/kg, PO, 10 mpk) of 14 µM·h. The Cmax ([4]; 10 mg/kg, PO, 10 mpk) was 6.5 µM, the Tmax ([4]; 10 mg/kg, PO, 10 mpk) was 0.75 h and the bioavailability ([4]; 10 mg/kg, PO, 10 mpk) was 51%. For the same compound, the AUC [5] was 2 µM·h, the Vd [5] was 5.2 L/kg and the clearance [5] was 28 mL/min/kg. The half-life [5] was 2.1 h, the AUC ([6]; 3 mg/kg, IV, 3 mpk) was 22 µM·h and the Vd ([6]; 3 mg/kg, IV, 3 mpk) was 1.8 L/kg. The clearance ([6]; 3 mg/kg, IV, 3 mpk) was 7 mL/min/kg, the half-life ([6]; 3 mg/kg, IV, 3 mpk) was 4 h and the AUC ([6]; 30 mg/kg, PO, 30 mpk) was 95 µM·h. It also gave a Cmax ([6]; 30 mg/kg, PO, 30 mpk) of 10 µM, a Tmax ([6]; 30 mg/kg, PO, 30 mpk) of 1.5 h and a bioavailability ([6]; 30 mg/kg, PO, 30 mpk) of 45%. The AUC (in vivo; [7]) was 5 µM·h, the Vd (in vivo; [7]) was 4.4 L/kg and the clearance (in vivo; [7]) was 4.3 mL/min/kg. The Cmax (in vivo; [8]) was 9 µM, the Tmax (in vivo; [8]) was 4 h and the AUC (in vivo; crab-eating macaque, po, 10 mg/kg) was 72 µM·h. The half-life (in vivo; iv, 0.4 mg/kg) was 3.5 h and the bioavailability (in vivo; po, 10 mg/kg) was 60%.
